What was measured:
HBV Cp = experiment: Capsid assembly assay (fluorescence quenching); conditions: 10 μM compound, control reactions with no drug show 25±5% assembly
AD38 cells = experiment: Activity of test compounds on viral production from AD38 cells (qPCR viral load); format: cell-based, HBV; parameters: key: (+) depicting meets criteria for significant activity; (++) depicting exceeds criteria; conditions: 5 days, supernatant qPCR
Procedure: AD38 cells grown in a 175 cm flash with Growth Medium (DMEM/F12 (1:1) (cat#SH30023.01, Hyclone, 1× Pen/step (cat#: 30-002-CL, Mediatech, Inc), 10% FBS (cat#: 101, Tissue Culture Biologics), 250 μg/mL G418 (cat#: 30-234-CR, Mediatech, Inc), 1 μg/mL Tetracycline (cat#: T3325, Teknova)) were detached with 0.25% trypsin. Tetracycline-free treatment medium (15 mL DMEM/F12 (1:1) (cat#SH30023.01, Hyclone, 1× Pen/step (cat#: 30-002-CL, Mediatech, Inc), with 2% FBS, Tet-system approved (cat#: 631106, Clontech) were then added to mix and spun at 1300 rpm for 5 min. Pelleted cells were then re-suspended/washed with 50 mL of 1×PBS 2 times and 10 mL treatment medium one time. AD38 cells were then re-suspended with 10 mL of treatment medium and counted. Wells of a collagen coated 96-well NUNC microtiter plate were seeded at 50,000/well in 180 μL of treatment medium, and 20 μL of either 10% DMSO (Control) or a 10× solution of test compound in 10% DMSO in treatment media was added for as final compound concentration 1, 3, or 10 μM (1.0% final [DMSO]) and plates were incubated for 5 days at 37° C.
Subsequently viral load production was assayed by quantitative PCR of the core sequence. Briefly, 5 μL of clarified supernatant was added to a PCR reaction mixture that contained forward primers HBV-f 5′-[…]-3′, Reverse primers HBV-r 5′-[…]-3′ and Fluorescent TaqMan™ Probes HBV-probe 5′-FAM/[…]/ZEN/[…]/31ABkFQ-3′ in Quanta Biosciences PerfeCTa® qPCR Toughmix®, and was subsequently on an Applied Biosystems VIIA7 in a final volume of 20 μL. The PCR mixture was incubated at 45° C. for 5 minutes, then 95° C. for 10 min, followed by 40 cycles of 10 seconds at 95° C. and 20 seconds at 60° C. Viral load was quantitated against known standards by using ViiA™ 7 Software. Viral load in the supernatant from wells with treated cells were compared against viral load in supernatant from DMSO control wells (≥3 per plate). In Table 4, concentrations of test compound causing reductions in viral load greater than at least 3 standard deviations from the DMSO controls across all plates were considered active, with (+) depicting meets criteria for significant activity, and (++) depicting exceeds criteria.

Structure (SMILES)	% Capsid formation at 24 h (10 μM) (HBV Cp)	reduction in viral load vs DMSO controls (AD38 cells; test concentration 3 μM)	reduction in viral load vs DMSO controls (AD38 cells; test concentration 10 μM)	reduction in viral load vs DMSO controls (AD38 cells; test concentration 1 μM)
Cc1ccc(Nc2cc(C)nc(N3CCN(S(=O)(=O)c4ccc(C)cc4)CC3)n2)cc1 [compound 1]	95%	++	++	
Cc1ccc(Nc2cc(C)nc(N3CCN(S(=O)(=O)c4ccc(OC(F)(F)F)cc4)CC3)n2)cc1 [compound 2]	83%			
Cc1ccc(Nc2cc(C)nc(N3CCN(S(=O)(=O)c4ccc(Cl)cc4)CC3)n2)cc1 [compound 3]	94%	++	++	++
Cc1ccc(Nc2cc(C)nc(N3CCN(S(=O)(=O)c4ccc(O)cc4)CC3)n2)cc1 [compound 4]	99%			
CCc1ccc(S(=O)(=O)N2CCN(c3nc(C)cc(Nc4ccc(C)cc4)n3)CC2)cc1 [compound 5]	91%	++	++	
Cc1ccc(Nc2cc(C)nc(N3CCN(S(=O)(=O)c4ccc(C(C)C)cc4)CC3)n2)cc1 [compound 6]	92%	++	++	
Cc1ccc(Nc2cc(C)nc(N3CCN(S(=O)(=O)c4cccc(C)c4)CC3)n2)cc1 [compound 7]	79%	++	++	+
CCOc1ccc(S(=O)(=O)N2CCN(c3nc(C)cc(Nc4ccc(C)cc4)n3)CC2)cc1 [compound 8]	98%	++	++	
CCCCOc1ccc(S(=O)(=O)N2CCN(c3nc(C)cc(Nc4ccc(C)cc4)n3)CC2)cc1 [compound 9]	93%			
CC(=O)Nc1ccc(S(=O)(=O)N2CCN(c3nc(C)cc(Nc4ccc(C)cc4)n3)CC2)cc1 [compound 10]	96%	++	++	+
COc1ccc(S(=O)(=O)N2CCN(c3nc(C)cc(Nc4ccc(C)cc4)n3)CC2)cc1 [compound 11]	89%	++	++	
Cc1ccc(Nc2cc(C)nc(N3CCN(S(=O)(=O)c4ccccc4)CC3)n2)cc1 [compound 12]	73%			
Cc1ccc(Nc2cc(C)nc(N3CCN(S(=O)(=O)c4ccc(F)cc4)CC3)n2)cc1 [compound 13]	60%			
Cc1ccc(Nc2cc(C)nc(N3CCN(S(=O)(=O)c4ccccc4F)CC3)n2)cc1 [compound 14]	67%			
Cc1ccc(Nc2cc(C)nc(N3CCN(S(=O)(=O)c4cccc(F)c4)CC3)n2)cc1 [compound 15]	76%	++	++	
COc1cccc(S(=O)(=O)N2CCN(c3nc(C)cc(Nc4ccc(C)cc4)n3)CC2)c1 [compound 16]	95%	++	++	++
Cc1ccc(Nc2cc(C)nc(N3CCN(S(=O)(=O)c4ccc5ccccc5c4)CC3)n2)cc1 [compound 17]	70%			
COc1ccc(S(=O)(=O)N2CCN(c3nc(C)cc(Nc4ccc(C)cc4)n3)CC2)cc1OC [compound 18]	71%	++	++	
Cc1ccc(Nc2cc(C)nc(N3CCN(S(=O)(=O)c4ccc5cc(N(C)C)ccc5c4)CC3)n2)cc1 [compound 19]	83%			
CCCCc1ccc(S(=O)(=O)N2CCN(c3nc(C)cc(Nc4ccc(C)cc4)n3)CC2)cc1 [compound 20]	90%			
CC(C)c1cc(Nc2ccc(F)cc2)nc(N2CCN(S(=O)(=O)c3ccccc3)CC2)n1 [compound 21]	71%			

Structure (SMILES)	% Capsid formation at 24 h (10 μM) (HBV Cp)	reduction in viral load vs DMSO controls (AD38 cells; test concentration 3 μM)	reduction in viral load vs DMSO controls (AD38 cells; test concentration 10 μM)	reduction in viral load vs DMSO controls (AD38 cells; test concentration 1 μM)
Cc1ccc(S(=O)(=O)N2CCN(c3nc(Nc4ccc(F)cc4)cc(C(C)C)n3)CC2)cc1 [compound 22]	80%			
Cc1ccc(Nc2cc(C)nc(N3CCN(S(=O)(=O)c4ccc(N(C)C)cc4)CC3)n2)cc1 [compound 23]	88%	++	++	+
CNc1ccc(S(=O)(=O)N2CCN(c3nc(C)cc(Nc4ccc(C)cc4)n3)CC2)cc1 [compound 24]	96%	++	++	
Cc1ccc(Nc2cc(C)nc(N3CCN(S(=O)(=O)c4ccc(N)cc4)CC3)n2)cc1 [compound 26]	96%	++	++	
Cc1ccc(Nc2cc(C)nc(N3CCN(S(=O)(=O)c4ccc(OC(C)(C)C)cc4)CC3)n2)cc1 [compound 27]	84%	++	++	
Cc1ccc(Nc2cc(C)nc(N3CCN(S(=O)(=O)c4ccc(OC(F)F)cc4)CC3)n2)cc1 [compound 28]	96%	++	++	++
CCc1cc(Nc2ccc(C)cc2)nc(N2CCN(S(=O)(=O)c3ccc(OC)cc3)CC2)n1 [compound 29]	94%	++	++	++
COc1ccc(S(=O)(=O)N2CCN(c3nc(Nc4ccc(C)cc4)cc(C(C)C)n3)CC2)cc1 [compound 30]	87%			
COc1ccc(S(=O)(=O)N2CCN(c3nc(Nc4ccc(C)cc4)cc(C(C)(C)C)n3)CC2)cc1 [compound 31]	87%	++	++	
CCCc1cc(Nc2ccc(C)cc2)nc(N2CCN(S(=O)(=O)c3ccc(OC)cc3)CC2)n1 [compound 32]	69%	++	++	++
COc1ccc(S(=O)(=O)N2CCN(c3nc(C)cc(Nc4ccc(Br)cc4)n3)CC2)cc1 [compound 34]	96%	++	++	++
CCc1ccc(Nc2cc(C)nc(N3CCN(S(=O)(=O)c4ccc(OC)cc4)CC3)n2)cc1 [compound 35]	81%	++	++	++
COc1ccc(S(=O)(=O)N2CCN(c3nc(C)cc(Nc4ccc(OC(F)(F)F)cc4)n3)CC2)cc1 [compound 36]	78%			
COc1ccc(S(=O)(=O)N2CCN(c3nc(C)cc(Nc4ccc(Cl)cc4)n3)CC2)cc1 [compound 37]	93%	++	++	++
COc1ccc(S(=O)(=O)N2CCN(c3nc(C)cc(Nc4ccc(F)cc4)n3)CC2)cc1 [compound 38]	75%			
COc1ccc(S(=O)(=O)N2CCN(c3nc(C)cc(Nc4ccccc4)n3)CC2)cc1 [compound 39]	56%			
COc1ccc(Nc2cc(C)nc(N3CCN(S(=O)(=O)c4ccc(OC)cc4)CC3)n2)cc1 [compound 41]	84%			
COc1ccc(Nc2cc(C)nc(N3CCN(S(=O)(=O)c4ccc(OC)cc4)CC3)n2)cc1 [compound 43]	97%			
COc1cccc(S(=O)(=O)N2CCN(c3nc(C)cc(Nc4ccc(F)cc4)n3)CC2)c1 [compound 44]	92%			
COc1ccc(Nc2cc(C)nc(N3CCN(S(=O)(=O)c4ccc(OC)c(OC)c4)CC3)n2)cc1 [compound 45]	87%			

— patent US10220034B2, “Hepatitis B viral assembly effectors” (Indiana University Research and Technology Corp., priority 2013, dated 2019)
